Results published in patent US6841577B2, “Pesticidal activity of plant essential oils and their constituents” (Ecosmart Technologies, Inc., priority 1999, dated 2005).

Assays:
[1] = system: octopamine receptor sites; test: 3H-OA binding to ventral nerve cord / synaptosomal membrane protein; design: species or system American cockroach (Periplaneta americana); settings: for cpm 3H-OA/500 μg protein: Table 1, solvent control 1280 ± 259
Method: Different concentrations of unlabeled octopamine (OA) (20, 30, 40, 50, 60, 100 ng) were tested on the binding activity as a positive control. Test chemicals were dissolved in acetone before the assay. Different concentrations of the test chemicals were added directly to the protein preparation from ventral nerve cord. The same amount of solvent (1 μl 0.1%) were added to the control samples. All assays with test chemicals were run in the presence and absence of 50 ng OA. All chemicals were added to the protein extract 20 min prior the addition of radio labeled ^3H-OA(100,000 cpm/sample). After 30 min at 24° C. of the addition of ^3H-OA, the reaction was stopped by the addition of ice-cold Tris buffer, and the samples were filtered through GF/C membrane using water vacuum. After two washes each with 5 ml Tris buffer, the membrane was removed, air dried and the radioactivity was counted in 4 ml liquid scintillation solution. The specific binding was calculated as the difference between the values in the presence and absence of unlabeled OA. All data are calculated as the mean±standard deviation of 5 assays.
Additional tests were conducted on radio labeled octopamine using other purified naturally occurring materials as given in Tables 2 and 3.

American cockroach [2] = test: Lethal effect of injected test chemicals; type: in vivo; settings: dead/10
Method: Further studies were conducted to determine the LD 50 of purified naturally occurring plant essential oils and/or their constituents. […] Ten roaches per dose were used. Another group of ten roaches received the same volume of vehicle only (0.5 μl) and used as a control group. Mortality was recorded 24, 48, and 72 hours after exposure.

[3] = system: heart of American cockroach (octopamine receptors); test: Heartbeat after application to thoracic segment; type: in vivo; settings: mean ±SD of three roaches
Method: To further establish the effect of the purified naturally occurring plant essential oils and/or their constituents on the American cockroach, a 300 μg amount of the chemical was applied to the thoracic segment of an intact and alive American cockroach. The heart beats/30 seconds was measured. The heart of the cockroach is known to have a high concentration of octopamine receptors and the heart beat is considered an important measurement to indicate the effect of the applied chemicals to the octopamine receptors.

American cockroach [4] = test: Cross walk jar test on pre-treated surface; type: in vivo; settings: Periplaneta americana, 24 h
Method: In the test, a known amount of the test material was dissolved in a known volume of acetone and applied to small jars and all inner bottom surfaces were covered. The bottom surface of each jar is approximately 250 cm^2. One hour after the acetone had completely evaporated, five American cockroaches were introduced to each jar. Control jars were treated exactly as above but with the known amount of acetone only.
The results of the “cross walk” jar tests are in Table 8 in which the “4-blend” was dispersed as an aerosol and a dust in the jar.
In this test, the acetone solution of the test material was placed in the jar and the roach inserted into the jar after the acetone had evaporated.
Mortality was measured 24 hours after exposure.
The “4-blend” and the individual constituents of the “4-blend” were tested using 10 cockroaches for each “cross walk” treatment. In addition, pyrethrins were tested separately and mixed with the various components.
A concentration of 100 mg/jar was used for each individual alone. In the co-treatment experiment without pyrethrins, 20 mg/jar for each chemical was used. In the cotreatment experiment with pyrethrins, 20 mg/jar for the naturally occurring plant material was used. Pyrethrins was used at 2 mg/jar. […] It was noted above that the mortality is dependent upon concentration. […] Some synergism is found between pyrethrins and either α-terpineol or benzyl alcohol.

[5] = system: 2nd instar green peach aphid nymphs; test: Cabbage leaf disc bioassay; type: in vivo
Method: A bioassay similar to that for S. litura larvae was used for additional larvae. Cabbage leaf discs were dipped in emulsified aqueous solutions, diluted 1:200 in water, on which 2nd instar green peach aphid nymphs were placed. For each treatment there was 10 aphids per disc with 5 replicates; each experiment was replicated in time (successive days) from 3-5 times. After 24 hours, aphids were reported as being (1) on the leaf disc and feeding; (2) alive, but walking off the disc; or (3) dead. In the field, aphids which cease feeding and abandon a host plant are very unlikely to survive.

American cockroaches = test: Cross walk testing with eugenol in acetone or Isopar M; type: in vivo, American cockroach; design: KD (knockdown), of 5: unit not given beside the values
Method: Additional “cross walk” testing was conducted with eugenol. Table 18 provides data for 5% (by volume) eugenol in acetone and Table 19 provides data for 1% eugenol in acetone wherein five (5) American cockroaches were placed in the screened jars after the acetone had evaporated. IM=immobilized; KD=knockdown; D=dead; L=live (no effect).
Table 20 provides data for 5% (by volume) eugenol in 95% Isopar M and Table 21 provides data for 1% (by volume) eugenol in 99% Isopar M. Isopar M is an isoparaffinic hydrocarbon sold by Exxon Corporation.

[6] = 1% eugenol in 99% Isopar M, 2 min
[7] = 1% eugenol in 99% Isopar M, 5 min
[8] = 1% eugenol in 99% Isopar M, 45 min
[9] = 5% eugenol in 95% Isopar M, 2 min
[10] = 5% eugenol in 95% Isopar M, 5 min

## C=CCc1ccc(O)c(OC)c1 [eugenol]
[1]; 300 ng test chemical
  cpm 3H-OA/500 μg protein: 818 ± 93 cpm 3H-OA/500 μg protein
[1]; 500 ng test chemical
  cpm 3H-OA/500 μg protein: 730 ± 59 cpm 3H-OA/500 μg protein
[1]; 700 ng test chemical
  cpm 3H-OA/500 μg protein: 453 ± 39 cpm 3H-OA/500 μg protein
[1]; 1000 ng test chemical
  cpm 3H-OA/500 μg protein: 226 ± 15 cpm 3H-OA/500 μg protein
[1]; 1500 ng test chemical
  cpm 3H-OA/500 μg protein: 200 ± 17 cpm 3H-OA/500 μg protein
[1]; based on the binding data of Tables 1-3
  classification with respect to octopamine receptor sites (OAR): high OAR antagonists
American cockroach [2]; 300 μg
  Mortality 24 hr after treatment: 2/10
American cockroach [2]; 400 μg
  Mortality 24 hr after treatment: 3/10
American cockroach [2]; 500 μg/roach injected into thoracic and abdominal segments, 24 hr.
  Mortality: 6/10
American cockroach [2]; 500 μg/roach injected, 48 hr.
  Mortality: 6/10
American cockroach [2]; 500 μg/roach injected, 72 hr., control 1/10
  Mortality: 6/10
American cockroach [2]; 500 μg
  Mortality 24 hr after treatment: 5/10
American cockroach [2]; 600 μg
  Mortality 24 hr after treatment: 8/10
American cockroach [2]; 700 μg
  Mortality 24 hr after treatment: 9/10
[3]; 300 μg applied to thoracic segment
  Heart beat/30 sec 30 min after treatment: 24 ± 1 beat/30 sec
[3]; baseline of the same roaches
  Heart beat/30 sec before treatment: 55 ± 3 beat/30 sec
American cockroach [4]
  mortality at 100 mg: 100%
[5]; 1:200 dilution
  activity on green peach aphid nymphs, in words: somewhat more active
[5]; diluted 1:200 in water, after 24 hours, n = 250, Table 16, control 23.4
  Percentage of aphids Walking (off disc): 38.3%
[5]; diluted 1:200 in water, after 24 hours, n = 250, Table 16, control 24.8
  Percentage of aphids Dead: 44.3%
[5]; diluted 1:200 in water, after 24 hours, n = 250, Table 16, control 51.7
  Percentage of aphids Feeding: 17.7%
American cockroaches; [6]
  D (dead), of 5: 2/5
  IM (immobilized), of 5: 1/5
  KD (knockdown), of 5: 1/5
American cockroaches; [7]
  D (dead), of 5: 3/5
  IM (immobilized), of 5: 1/5
American cockroaches; 1% eugenol in 99% Isopar M, 15 min
  IM (immobilized), of 5: 2/5 IM
American cockroaches; 1% eugenol in 99% Isopar M, 30 min
  IM (immobilized), of 5: 2/5 IM
American cockroaches; [8]
  D (dead), of 5: 4/5
  IM (immobilized), of 5: 1/5
American cockroaches; 1% eugenol in 99% Isopar M, 1 hr.
  IM (immobilized), of 5: 1/5 IM
American cockroaches; 1% eugenol in 99% Isopar M, 1.5 hr.
  D (dead), of 5: 5/5 D
American cockroaches; 1% eugenol in acetone, 2 min
  L (live, no effect), of 5: 5/5 L
American cockroaches; 1% eugenol in acetone, 30 min
  L (live, no effect), of 5: 5/5 L
American cockroaches; 1% eugenol in acetone, 45 min
  IM (immobilized), of 5: 3/5 IM
American cockroaches; 1% eugenol in acetone, 1 hr.
  IM (immobilized), of 5: 3/5
  KD (knockdown), of 5: 1/5
American cockroaches; 1% eugenol in acetone, 1.5 hr.
  IM (immobilized), of 5: 3/5
  KD (knockdown), of 5: 1/5
American cockroaches; 1% eugenol in acetone, 2 hr.
  IM (immobilized), of 5: 3/5
  KD (knockdown), of 5: 1/5
American cockroaches; 1% eugenol in acetone, 4 hr.
  IM (immobilized), of 5: 3/5
  KD (knockdown), of 5: 1/5
American cockroaches; 1% eugenol in acetone, 24 hr., (KD/IM recover)
  IM (immobilized), of 5: 2/5 IM (KD/IM recover)
American cockroaches; [9]
  D (dead), of 5: 2/5
  IM (immobilized), of 5: 1/5
American cockroaches; [10]
  D (dead), of 5: 4/5
  IM (immobilized), of 5: 1/5
American cockroaches; 5% eugenol in 95% Isopar M, 10 min
  D (dead), of 5: 5/5 D
American cockroaches; 5% eugenol in acetone, 2 min
  IM (immobilized), of 5: 1/5 IM
American cockroaches; 5% eugenol in acetone, 5 min
  IM (immobilized), of 5: 1/5 IM
American cockroaches; 5% eugenol in acetone, 15 min
  IM (immobilized), of 5: 3/5 IM
American cockroaches; 5% eugenol in acetone, 30 min
  IM (immobilized), of 5: 3/5
  KD (knockdown), of 5: 1/5
American cockroaches; 5% eugenol in acetone, 45 min
  IM (immobilized), of 5: 3/5
  KD (knockdown), of 5: 1/5
American cockroaches; 5% eugenol in acetone, 1 hr.
  IM (immobilized), of 5: 4/5
  KD (knockdown), of 5: 1/5
American cockroaches; 5% eugenol in acetone, 1.5 hr.
  IM (immobilized), of 5: 4/5
  KD (knockdown), of 5: 1/5
American cockroaches; 5% eugenol in acetone, 2 hr.
  IM (immobilized), of 5: 4/5
  KD (knockdown), of 5: 1/5
American cockroaches; 5% eugenol in acetone, 4 hr.
  D (dead), of 5: 4/5
  KD (knockdown), of 5: 1/5
American cockroaches; 5% eugenol in acetone, 24 hr.
  D (dead), of 5: 5/5 D
American cockroaches; 5% eugenol, in both modes of use (acetone, Isopar M)
  effectiveness as a pesticide for American cockroaches, in words: highly effective
